Data published in patent US9151761B2, “Predictive biomarker of survival in the treatment of renal cell carcinoma” (Amgen Inc., priority 2011, dated 2015).

System: advanced clear cell carcinoma of the kidney
Test: Phase 2 study of AMG 386 plus sorafenib: progression free survival by baseline serum PLGF above vs below the median (28 pg/mL)
Assay type: in vivo, human
Conditions: sorafenib only, 400 mg PO BID (placebo AMG 386), FIG. 4
Protocol: FIGS. 1-4 are Kaplan-Meier plots showing progression free survival differences between subjects with patient PLGF concentrations above and below the median PLGF concentration parameter (28 pg/mL). 123 patients total with 43 patients administered AMG 386 at 10 mg/kg, 39 patients at 3 mg/kg, and 41 patients at 0 mg/kg. All patients were also dosed with 400 mg sorafenib orally, twice a day. […]
The number of patients to be enrolled was approximately 150. […] The primary outcome measured was PFS while the secondary outcome included objective response rate, duration of response, and change in continuous measures of tumor burden.
Renal cancer patient's circulating levels of protein placental growth factor (PLGF) was analyzed along with a number of other analytes to determine if it was predictive of how well they will respond after treatment with AMG 386 and sorafenib. […] The baseline patient PLGF concentration was analyzed to determine if it was informative of how well the patient would respond to the treatment regimens.
The patients PLGF concentrations were determined and tested for statistical association with progression free survival (PFS) time. […] Predictive significance was determined with a Cox proportional hazards model of PFS with the factors PLGF, cohort, and the interaction between PLGF and cohort. […]

CNC(=O)c1cc(Oc2ccc(NC(=O)Nc3ccc(Cl)c(C(F)(F)F)c3)cc2)ccn1 [sorafenib]
Cox proportional hazard ratio (HR) of progression free survival, patient PLGF above vs below median (41 patients (23 above, 18 below)): 0.83 | difference in median survival, patient PLGF above vs below median (41 patients): 1 days
